Source: patent US9738614B2, “Malignant and non-malignant disease treatment with Ras antagonists” (PISCES THERAPEUTICS, LLC, priority 2011, dated 2017)

What was measured:
U87MG cells = test: Cell proliferation assay for U87MG cells; assay type: cell-based
Description: (§1) The adult glioblastoma cell line U87MG was obtained from a commercial source (ATCC). The pancreatic cancer cell line PANC-1 was obtained from a local laboratory (Indiana University). Both lines were grown in Iscove's Modified Dulbecco's Medium with 10% fetal bovine serum (FBS) at 37° C. and 5% CO2.
(§2) Compounds (1), (2), (3), (4), and (5), which are shown and described above, were each dissolved in ethanol at 10 mg/mL. A measured portion of the solution was pipetted into a microcentrifuge tube. Then, the ethanol was evaporated from each tube using a SpeedVac®, leaving just the compound in the tube. The appropriate amount of chloroform was added to the tube to produce a 0.1 M concentration. The solutions were placed on ice and in the dark so they could be pipetted into 10- and 20-μL aliquots in 1.5 mL microcentrifuge tubes. The solutions were frozen at […] with lids closed tightly and the tubes covered with foil.
(§3) Prior to treating the cells, a tube of the test compound was removed from the freezer and placed under a biosafety hood to evaporate the chloroform in the tubes. Then, dimethyl sulfoxide (DMSO) was added to the tubes to make the correct concentration to use in the experiment (0.1 M stock). The tubes were vortexed, and warm media with 10% FBS was slowly added to make the correct working concentrations to be used in the experiment. The compounds were directly added to each well for treatment.
U87MG cells were seeded in a 24-well plate, 5000 cells per well, and incubated overnight at 37° C. in serum-free media. The next day they were treated in triplicate with 50 and 100 μM of each test compound (1), (2), (3), (4), and (5) and the reference compound FTS. After five days, the cells were trypsinized (0.5%), stained with trypan blue, and counted to determine the cell number per well. The half-maximal inhibitory concentration (IC50) values were calculated using Multiplex Reader-Fit software made by MiraiBio Group, Hitachi Solutions America, Ltd. In a typical experiment, the control wells averaged 138,000 cells. The results are presented graphically in FIG. 1. The test compounds at 50 μM allowed the following U87MG cell proliferation compared to control: compound (1)—37%, compound (2)—18%, compound (3)—10%, compound (4)—40%, and compound (5)—0%. The reference compound FTS at 50 μM allowed 7% cell proliferation compared to control.
To further evaluate compounds (3) and (5), which inhibited the most cell growth in FIG. 1, more U87MG cells were seeded in 24-well plates, 5000 cells per well, and incubated overnight at 37° C. in serum-free media. The cells were treated the next morning in media with 5% serum in triplicate with standard concentrations of 6.25, 12.5, 25, and 50 μM of each test compound (3) and (5) and the reference compound FTS. After five days of treatment, the cells were trypsinized (0.5%) and then stained with trypan blue. Cells were counted to determine the number of cells per well. Again, the IC50 values were calculated using Multiplex Reader-Fit software made by MiraiBio Group, Hitachi Solutions America, Ltd. In a typical experiment, the control wells averaged 56,000 cells. The results are presented graphically in FIG. 2. The test compounds at 25 μM allowed the following U87MG cell proliferation compared to control: compound (3)—69% and compound (5)—0%. The reference compound FTS at 25 μM allowed over 50% cell proliferation compared to control.
Since the doses of compound (5) used above killed all of the cells, the dose curve was set up again using even lower doses of compound (5). U87MG cells were seeded in 24-well plates, 5000 cells per well, and incubated overnight at 37° C. in serum-free media. The cells were treated in triplicate with 6.25, 12.5, 25, and 50 μM of the reference compound FTS and 0.3125, 0.625, 1.25, 2.5, and 5.0 μM of the test compound (5) in media with 5% serum for five days. Then, the cells were trypsinized (0.5%) and stained with trypan blue, and the cell number per each well was determined. […]

Ras-GTP = Ras-GTP Western blot in PDGF-stimulated NF-1-/- Schwann cells; assay type: cell-based, mouse; conditions: 2.5-5 μM, 3 minutes after PDGF stimulation (FIG. 5A)
Description: (§4) A purified population of NF-1−/−S 100+Schwann cells isolated from a plexiform neurofibroma in a genetically engineered mouse (Zhu, Y. et al., Science, May 2002, 3; 296(5569)):920-922) were stimulated with a maximum stimulating concentration of platelet derived growth factor (PDGF) in the presence of a control or compound (3) at concentrations of 2.5-5 μM. Ras-GTP was measured 3 minutes subsequently using Western blot analysis. […] In parallel experiments, Schwann cell proliferation was measured using visible spectroscopy 24 hrs after PDGF stimulation in the presence of a control or compound (3) at concentrations of 25-50 μM. […] Each asterisk in FIG. 5B represents a statistical difference relative to the control using analysis of variance. (Yang, Feng-Chun, et. al. J Clin Invest 2003, 112(12), 1851-1861; Yang, Feng-Chun, et. al. Hum Mol Genet 2006, 15(11), 1921-1930).

PANC-1 cells = test: Cell proliferation assay for PANC-1 cells; assay type: cell-based; conditions: 12.5 μM, media with 5% serum, five days (FIG. 3)
Description: as §1, §2, §3
The cells were treated in triplicate with standard concentrations of 6.25, 12.5, 25, 50, and 100 μM of each test compound (3) and (5) and the reference compound FTS and, when needed, concentrations of 0.625, 1.25, 2.5 and 5.0 μM in media with 5% serum for five days. Then, the cells were stained with trypan blue, and the cell number per each well was determined. Again, the IC50 values were calculated using Multiplex Reader-Fit software made by MiraiBio Group, Hitachi Solutions America, Ltd. In a typical experiment, the control wells averaged 32,500 cells. The results are presented graphically in FIG. 3. […]

[1] = test system: hematopoietic progenitor cells (cord blood low density cells); test: Human hematopoietic progenitor cell toxicity (colony assay); assay type: cell-based; conditions: 12 days; 25 and 2.5 μM for compound (3), 2.5 and 0.25 μM for compound (5)
Description: Cord blood low density cells were plated at 1×10^5 cells per plate in 1 mL complete methylcellulose in the presence of each test compound (3) and (5) and incubated for 12 days in a CO2 incubator. Colony-forming unit-granulocyte (CFU-GM), burst-forming unit-erythroid (BFU-E), and mixed colonies were counted under an inverted microscope. […] The test compounds were not toxic to the hematopoietic progenitor cells.

[2] = test system: primary human lung fibroblasts; test: Inhibition of TGF-β induced myofibroblast formation (α-SMA Western blot); assay type: cell-based; conditions: TGF-β 72 hours, concentrations below 25 μM
Description: Primary human lung fibroblasts were stimulated for 72 hours with transforming growth factor beta (TGF-β) to induce their differentiation to an alpha smooth muscle actin (α-SMA) expressing activated myofibroblasts cell fate. […] The activin like kinase receptor (ALK5) inhibitor SB431542 was used as a positive control. Myofibroblast formation was evaluated by Western blot by examining changes in α-SMA levels.

[3] = test system: NF-1-/- S100+ Schwann cells; test: NF-1-/- Schwann cell proliferation (visible spectroscopy); assay type: cell-based, mouse; conditions: 25-50 μM, 24 hrs after PDGF stimulation (FIG. 5B)
Description: as §4

[4] = 50 μM, five days, trypan blue cell count (FIG. 1)
[5] = 25 μM, media with 5% serum, five days (FIG. 2)

## CCOC(=O)c1nnsc1SC/C=C(\C)CC/C=C(\C)CCC=C(C)C [compound (4), Ethyl 5-{[(2E,6E)-3,7,11-trimethyldodeca-2,6,10-trien-1-yl]sulfanyl}-1,2,3-thiadiazole-4-carboxylate]
U87MG cells; [4]
  U87MG cell proliferation compared to control: 40%

## CC(C)=CCC/C(C)=C/CC/C(C)=C/CSc1ccsc1C(=O)O [compound (3), 3-{[(2E,6E)-3,7,11-trimethyldodeca-2,6,10-trien-1-yl]sulfanyl}thiophene-2-carboxylic acid]
Ras-GTP
  level of Ras-GTP relative to the control: significantly reduced
PANC-1 cells
  PANC-1 cell proliferation compared to control: 41%
[1]
  toxicity to hematopoietic progenitor cells (CFU-GM, BFU-E, mixed colonies): not toxic
U87MG cells; [5]
  U87MG cell proliferation compared to control: 69%
U87MG cells; [4]
  U87MG cell proliferation compared to control: 10%
U87MG cells; Homo sapiens, U-87 MG, value quoted in Example 7, read-out: IC50 as determined on the U87MG cells
  IC50: 25 µM
[2]
  inhibition of myofibroblast formation: did not inhibit
[3]
  Schwann cell proliferation relative to the control: reduced

## CC(C)=CCC/C(C)=C/CC/C(C)=C/CSc1ccccc1C(=O)O [FTS, farnesyl-thiosalicylic acid, reference compound]
PANC-1 cells
  PANC-1 cell proliferation compared to control: over 80%
U87MG cells; 6.25 μM, media with 5% serum, five days (FIG. 2)
  U87MG cell proliferation compared to control: over 80%
U87MG cells; [5]
  U87MG cell proliferation compared to control: over 50%
U87MG cells; [4]
  U87MG cell proliferation compared to control: 7%

## CC(C)=CCC/C(C)=C/CC/C(C)=C/CSc1ccccc1-c1nn[nH]n1 [compound (1), 5-(2-{[(2E,6E)-3,7,11-trimethyldodeca-2,6,10-trien-1-yl]sulfanyl}phenyl)-2H-1,2,3,4-tetrazole]
U87MG cells; [4]
  U87MG cell proliferation compared to control: 37%
